Source: patent US10473647B1, “Peptides for use in treatment and diagnosis of type 1 diabetes” (ImmusanT, Inc., priority 2014, dated 2019)
Non-standard residues stand in square brackets, D forms with d. pGlu = O=C1CC[C@@H](C(=O)O)N1

Legend:
Type in all cases: cell-based, human
[1] = test system: whole blood from subjects with T1D and Celiac disease; test: Whole blood cytokine release assay, IL-2 (MAGPIX), Example 1; conditions: for Whole blood IL-2 release / Whole blood IL-2 release, fold-change over medium only: 10 uM
[2] = test system: whole blood from subjects with T1D and Celiac disease; test: Whole blood cytokine release assay, IP-10 (MAGPIX), Example 1; conditions: for Whole blood IP-10 release / Whole blood IP-10 release, fold-change over medium only: 10 uM; for IP-10 fold-change / IP-10 fold-change (preproinsulin peptides) / subjects with elevated whole blood IP-10 release (2-fold greater than medium alone) / IP-10 fold-change (GAD65 peptides): individual 17mer 20 μg/mL, blood 6 days after commencing oral gluten challenge; for subjects with elevated whole blood IP-10 release (2-fold greater than medium alone): four subjects
[3] = test system: whole blood from subjects with T1D and Celiac disease; test: Whole blood cytokine release assay, IFN-γ (MAGPIX), Example 1; conditions: for Whole blood IFNg release / Whole blood IFNg release, fold-change over medium only: 10 uM
[4] = subject 1, day 0 since oral challenge
[5] = subject 1, day 6 since oral challenge
[6] = subject 2, day 0 since oral challenge
[7] = subject 2, day 6 since oral challenge
[8] = subject 6, day 0 since oral challenge
[9] = subject 6, day 6 since oral challenge
[10] = subject 7, day 0 since oral challenge
[11] = subject 7, day 6 since oral challenge
[12] = Subject 1, individual 17mer 20 μg/mL, blood 6 days after commencing oral gluten challenge
[13] = Subject 2, individual 17mer 20 μg/mL, blood 6 days after commencing oral gluten challenge
[14] = Subject 6, individual 17mer 20 μg/mL, blood 6 days after commencing oral gluten challenge
[15] = Subject 7, individual 17mer 20 μg/mL, blood 6 days after commencing oral gluten challenge
[16] = individual 17mer 20 μg/mL, four subjects, blood 6 days after commencing oral gluten challenge

Substance: (pE)QPFPQPEQPFPWQP-NH2 ([pGlu]QPFPQPEQPFPWQP-NH2; SMILES NC(=O)CC[C@H](NC(=O)[C@H](Cc1c[nH]c2ccccc12)NC(=O)[C@@H]1CCCN1C(=O)[C@H](Cc1ccccc1)NC(=O)[C@@H]1CCCN1C(=O)[C@H](CCC(N)=O)NC(=O)[C@H](CCC(=O)O)NC(=O)[C@@H]1CCCN1C(=O)[C@H](CCC(N)=O)NC(=O)[C@@H]1CCCN1C(=O)[C@H](Cc1ccccc1)NC(=O)[C@@H]1CCCN1C(=O)[C@H](CCC(N)=O)NC(=O)[C@@H]1CCC(=O)N1)C(=O)N1CCC[C@H]1C(N)=O) [SEQ ID NO: 43, gluten peptide, reference compound]
- Whole blood IL-2 release [1, 4]: 3.2 pg/mL
- Whole blood IL-2 release, fold-change over medium only [1, 4]: 1.00
- Whole blood IL-2 release [1, 5]: 3.2 pg/mL
- Whole blood IL-2 release, fold-change over medium only [1, 5]: 1.00
- Whole blood IL-2 release [1, 6]: 3.2 pg/mL
- Whole blood IL-2 release, fold-change over medium only [1, 6]: 1.00
- Whole blood IL-2 release [1, 7]: 5.2 pg/mL
- Whole blood IL-2 release, fold-change over medium only [1, 7]: 1.61
- Whole blood IL-2 release [1, 8]: 17.9 pg/mL
- Whole blood IL-2 release, fold-change over medium only [1, 8]: 3.62
- Whole blood IL-2 release [1, 9]: 115. 9 pg/mL
- Whole blood IL-2 release, fold-change over medium only [1, 9]: 27.33
- Whole blood IL-2 release [1, 10]: 41.4 pg/mL
- Whole blood IL-2 release, fold-change over medium only [1, 10]: 0.66
- Whole blood IL-2 release [1, 11]: 55.1 pg/mL
- Whole blood IL-2 release, fold-change over medium only [1, 11]: 1.31
- Whole blood IP-10 release [2, 4]: 218 pg/mL
- Whole blood IP-10 release, fold-change over medium only [2, 4]: 0.82
- Whole blood IP-10 release [2, 5]: 501 pg/mL
- Whole blood IP-10 release, fold-change over medium only [2, 5]: 1.49
- Whole blood IP-10 release [2, 6]: 376 pg/mL
- Whole blood IP-10 release, fold-change over medium only [2, 6]: 1.42
- Whole blood IP-10 release [2, 7]: 1140 pg/mL
- Whole blood IP-10 release, fold-change over medium only [2, 7]: 3.65
- Whole blood IP-10 release [2, 8]: 1934 pg/mL
- Whole blood IP-10 release, fold-change over medium only [2, 8]: 6.98
- Whole blood IP-10 release [2, 9]: 10000 pg/mL
- Whole blood IP-10 release, fold-change over medium only [2, 9]: 49.76
- Whole blood IP-10 release [2, 10]: 900 pg/mL
- Whole blood IP-10 release, fold-change over medium only [2, 10]: 1.21
- Whole blood IP-10 release [2, 11]: 10000 pg/mL
- Whole blood IP-10 release, fold-change over medium only [2, 11]: 11.21
- Whole blood IFNg release [3, 4]: 60 pg/mL
- Whole blood IFNg release, fold-change over medium only [3, 4]: 1.09
- Whole blood IFNg release [3, 5]: 62 pg/mL
- Whole blood IFNg release, fold-change over medium only [3, 5]: 0.95
- Whole blood IFNg release [3, 6]: 4.5 pg/mL
- Whole blood IFNg release, fold-change over medium only [3, 6]: 1.19
- Whole blood IFNg release [3, 7]: 6.4 pg/mL
- Whole blood IFNg release, fold-change over medium only [3, 7]: 1.32
- Whole blood IFNg release [3, 8]: 94 pg/mL
- Whole blood IFNg release, fold-change over medium only [3, 8]: 0.98
- Whole blood IFNg release [3, 9]: 258 pg/mL
- Whole blood IFNg release, fold-change over medium only [3, 9]: 2.63
- Whole blood IFNg release [3, 10]: 158 pg/mL
- Whole blood IFNg release, fold-change over medium only [3, 10]: 0.66
- Whole blood IFNg release [3, 11]: 150 pg/mL
- Whole blood IFNg release, fold-change over medium only [3, 11]: 1.00

Substance: YTPKTRREAEDLQVGQV [SEQ ID NO: 55]
- IL-2 fold-change [1, 12]: 1.00
- IL-2 fold-change (preproinsulin peptides) [1, 12]: 1.00 fold
- IL-2 fold-change [1, 13]: 1.00
- IL-2 fold-change (preproinsulin peptides) [1, 13]: 1.00 fold
- IL-2 fold-change [1, 14]: 1.04
- IL-2 fold-change (preproinsulin peptides) [1, 14]: 1.04 fold
- IL-2 fold-change [1, 15]: 8.00
- IL-2 fold-change (preproinsulin peptides) [1, 15]: 8.00 fold
- IP-10 fold-change ([2]; Subject 1): 1.06
- IP-10 fold-change (preproinsulin peptides) ([2]; Subject 1): 1.06 fold
- IP-10 fold-change ([2]; Subject 2): 1.22
- IP-10 fold-change (preproinsulin peptides) ([2]; Subject 2): 1.22 fold
- IP-10 fold-change ([2]; Subject 6): 1.56
- IP-10 fold-change (preproinsulin peptides) ([2]; Subject 6): 1.56 fold
- IP-10 fold-change ([2]; Subject 7): 1.42
- IP-10 fold-change (preproinsulin peptides) ([2]; Subject 7): 1.42 fold
- IFN-g fold-change [3, 12]: 0.51
- IFN-g fold-change (preproinsulin peptides) [3, 12]: 0.51 fold
- IFN-g fold-change [3, 13]: 0.82
- IFN-g fold-change (preproinsulin peptides) [3, 13]: 0.82 fold
- IFN-g fold-change [3, 14]: 1.00
- IFN-g fold-change (preproinsulin peptides) [3, 14]: 1.00 fold
- IFN-g fold-change [3, 15]: 1.86
- IFN-g fold-change (preproinsulin peptides) [3, 15]: 1.86 fold

Substance: MRLLPLLALLALWGPDP [SEQ ID NO: 47]
- IL-2 fold-change [1, 12]: 1.00
- IL-2 fold-change (preproinsulin peptides) [1, 12]: 1.00 fold
- IL-2 fold-change [1, 13]: 1.00
- IL-2 fold-change (preproinsulin peptides) [1, 13]: 1.00 fold
- IL-2 fold-change [1, 14]: 1.00
- IL-2 fold-change (preproinsulin peptides) [1, 14]: 1.00 fold
- IL-2 fold-change [1, 15]: 0.36
- IL-2 fold-change (preproinsulin peptides) [1, 15]: 0.36 fold
- IP-10 fold-change ([2]; Subject 1): 2.07
- IP-10 fold-change (preproinsulin peptides) ([2]; Subject 1): 2.07 fold
- IP-10 fold-change ([2]; Subject 2): 1.37
- IP-10 fold-change (preproinsulin peptides) ([2]; Subject 2): 1.37 fold
- IP-10 fold-change ([2]; Subject 6): 7.26
- IP-10 fold-change (preproinsulin peptides) ([2]; Subject 6): 7.26 fold
- IP-10 fold-change ([2]; Subject 7): 2.18
- IP-10 fold-change (preproinsulin peptides) ([2]; Subject 7): 2.18 fold
- subjects with elevated whole blood IP-10 release (2-fold greater than medium alone) [2]: recognized more weakly by three subjects
- IFN-g fold-change [3, 12]: 1.02
- IFN-g fold-change (preproinsulin peptides) [3, 12]: 1.02 fold
- IFN-g fold-change [3, 13]: 0.85
- IFN-g fold-change (preproinsulin peptides) [3, 13]: 0.85 fold
- IFN-g fold-change [3, 14]: 0.91
- IFN-g fold-change (preproinsulin peptides) [3, 14]: 0.91 fold
- IFN-g fold-change [3, 15]: 0.53
- IFN-g fold-change (preproinsulin peptides) [3, 15]: 0.53 fold

Substance: 61 (FDRSTKVIDFHYPNELL) [compound 61]
- IL-2 fold-change (GAD65 peptides) [1, 12]: 1.00 fold
- IL-2 fold-change (GAD65 peptides) [1, 13]: 1.00 fold
- IL-2 fold-change (GAD65 peptides) [1, 14]: 1.00 fold
- IL-2 fold-change (GAD65 peptides) [1, 15]: 11.19 fold
- IP-10 fold-change (GAD65 peptides) ([2]; Subject 1): 1.38 fold
- IP-10 fold-change (GAD65 peptides) ([2]; Subject 2): 1.14 fold
- IP-10 fold-change (GAD65 peptides) ([2]; Subject 6): 1.15 fold
- IP-10 fold-change (GAD65 peptides) ([2]; Subject 7): 2.11 fold
- IFN-g fold-change (GAD65 peptides) [3, 12]: 0.36 fold
- IFN-g fold-change (GAD65 peptides) [3, 13]: 0.67 fold
- IFN-g fold-change (GAD65 peptides) [3, 14]: 0.84 fold
- IFN-g fold-change (GAD65 peptides) [3, 15]: 2.47 fold

Substance: FDRSTKVIDFHYPNELL [SEQ ID NO: 61]
- subjects with elevated whole blood IL-2 release [1, 16]: One subjected responded
- subjects with elevated whole blood IP-10 release (2-fold greater than medium alone) [2]: One subjected responded
- subjects with elevated whole blood IFN-γ release [3, 16]: One subjected responded

Substance: RREAEDLEGSLQPLALE [SEQ ID NO: 49]
- IL-2 fold-change [1, 12]: 1.00
- IL-2 fold-change (preproinsulin peptides) [1, 12]: 1.00 fold
- IL-2 fold-change [1, 13]: 1.00
- IL-2 fold-change (preproinsulin peptides) [1, 13]: 1.00 fold
- IL-2 fold-change [1, 14]: 1.08
- IL-2 fold-change (preproinsulin peptides) [1, 14]: 1.08 fold
- IL-2 fold-change [1, 15]: 0.42
- IL-2 fold-change (preproinsulin peptides) [1, 15]: 0.42 fold
- IP-10 fold-change ([2]; Subject 1): 1.36
- IP-10 fold-change (preproinsulin peptides) ([2]; Subject 1): 1.36 fold
- IP-10 fold-change ([2]; Subject 2): 2.58
- IP-10 fold-change (preproinsulin peptides) ([2]; Subject 2): 2.58 fold
- IP-10 fold-change ([2]; Subject 6): 3.15
- IP-10 fold-change (preproinsulin peptides) ([2]; Subject 6): 3.15 fold
- IP-10 fold-change ([2]; Subject 7): 0.99
- IP-10 fold-change (preproinsulin peptides) ([2]; Subject 7): 0.99 fold
- IFN-g fold-change [3, 12]: 0.99
- IFN-g fold-change (preproinsulin peptides) [3, 12]: 0.99 fold
- IFN-g fold-change [3, 13]: 1.27
- IFN-g fold-change (preproinsulin peptides) [3, 13]: 1.27 fold
- IFN-g fold-change [3, 14]: 1.00
- IFN-g fold-change (preproinsulin peptides) [3, 14]: 1.00 fold
- IFN-g fold-change [3, 15]: 0.77
- IFN-g fold-change (preproinsulin peptides) [3, 15]: 0.77 fold
